± gives the expanded uncertainty stated by the source.
Assay: xn = mol fraction of the nth substance listed
Conditions: 100 kPa, Liquid; for speed of sound: Frequency=3 MHz, Single path-length method; for mass density: Vibrating tube method

CCCCNCCCC [dibutylamine] + CCC(C)O
Conditions | mass density, 293.15 K [kg/m3] | mass density, 298.15 K [kg/m3] | mass density, 303.15 K [kg/m3] | mass density, 308.15 K [kg/m3] | speed of sound, 293.15 K [m/s] | speed of sound, 298.15 K [m/s] | speed of sound, 303.15 K [m/s] | speed of sound, 308.15 K [m/s]
x1 = 0.0995 | 802.339 ± 1.4 | 798.045 ± 1.4 | 793.785 ± 1.4 | 789.452 ± 1.4 | 1242.3 ± 6.2 | 1223.7 ± 6.2 | 1205 ± 6.2 | 1186.7 ± 6.2
x1 = 0.2027 | 796.429 ± 1.4 | 792.197 ± 1.4 | 787.914 ± 1.4 | 783.574 ± 1.4 | 1249.9 ± 6.2 | 1231 ± 6.2 | 1211.9 ± 6.2 | 1193.6 ± 6.2
x1 = 0.3027 | 791.522 ± 1.4 | 787.26 ± 1.4 | 782.952 ± 1.4 | 778.597 ± 1.4 | 1254.5 ± 6.2 | 1235.3 ± 6.2 | 1216.2 ± 6.2 | 1197.1 ± 6.2
x1 = 0.3993 | 786.764 ± 1.4 | 782.487 ± 1.4 | 778.177 ± 1.4 | 773.83 ± 1.4 | 1257.8 ± 6.2 | 1238.8 ± 6.2 | 1219.4 ± 6.2 | 1200.1 ± 6.2
x1 = 0.4995 | 781.846 ± 1.4 | 777.578 ± 1.4 | 773.281 ± 1.4 | 768.951 ± 1.4 | 1260.6 ± 6.2 | 1241.1 ± 6.2 | 1221.7 ± 6.2 | 1202.6 ± 6.2
x1 = 0.6007 | 776.991 ± 1.4 | 772.741 ± 1.4 | 768.441 ± 1.4 | 764.17 ± 1.4 | 1261 ± 6.2 | 1241.4 ± 6.2 | 1221.9 ± 6.2 | 1202.6 ± 6.2
x1 = 0.7 | 772.61 ± 1.4 | 768.394 ± 1.4 | 764.156 ± 1.4 | 759.896 ± 1.4 | 1261.9 ± 6.3 | 1242.7 ± 6.3 | 1223.1 ± 6.3 | 1203.9 ± 6.3
x1 = 0.8002 | 768.643 ± 1.4 | 764.449 ± 1.4 | 760.24 ± 1.4 | 756.011 ± 1.4 | 1263.6 ± 6.3 | 1243.7 ± 6.3 | 1224 ± 6.3 | 1204.4 ± 6.3
x1 = 0.8989 | 764.755 ± 1.4 | 760.595 ± 1.4 | 756.428 ± 1.4 | 752.248 ± 1.4 | 1264.1 ± 6.3 | 1244.4 ± 6.3 | 1224.6 ± 6.3 | 1204.8 ± 6.3
x1 = 1 | 759.579 ± 1.4 | 755.48 ± 1.4 | 751.374 ± 1.4 | 747.268 ± 1.4 | 1260.1 ± 6.3 | 1240.1 ± 6.3 | 1220.3 ± 6.3 | 1200.6 ± 6.3

CCCCNCCCC [dibutylamine] + CCCC(C)O
Conditions | mass density, 293.15 K [kg/m3] | mass density, 298.15 K [kg/m3] | mass density, 303.15 K [kg/m3] | mass density, 308.15 K [kg/m3] | speed of sound, 293.15 K [m/s] | speed of sound, 298.15 K [m/s] | speed of sound, 303.15 K [m/s] | speed of sound, 308.15 K [m/s]
x1 = 0.1007 | 804.553 ± 1.5 | 800.484 ± 1.5 | 796.354 ± 1.5 | 792.163 ± 1.5 | 1257.5 ± 6.5 | 1238.8 ± 6.5 | 1220.2 ± 6.5 | 1201.8 ± 6.5
x1 = 0.1998 | 799.644 ± 1.5 | 795.528 ± 1.5 | 791.368 ± 1.5 | 787.153 ± 1.5 | 1261.6 ± 6.5 | 1243 ± 6.5 | 1224.2 ± 6.5 | 1205.4 ± 6.5
x1 = 0.3001 | 794.588 ± 1.5 | 790.443 ± 1.5 | 786.26 ± 1.5 | 782.034 ± 1.5 | 1264.1 ± 6.4 | 1245.1 ± 6.4 | 1226.2 ± 6.4 | 1207.6 ± 6.4
x1 = 0.4 | 789.453 ± 1.5 | 785.286 ± 1.5 | 781.088 ± 1.5 | 776.854 ± 1.5 | 1265 ± 6.4 | 1246.3 ± 6.4 | 1227.2 ± 6.4 | 1208.3 ± 6.4
x1 = 0.5004 | 784.348 ± 1.4 | 780.174 ± 1.4 | 775.972 ± 1.4 | 771.739 ± 1.4 | 1265.7 ± 6.4 | 1246.5 ± 6.4 | 1227.4 ± 6.4 | 1208.4 ± 6.4
x1 = 0.6 | 779.579 ± 1.4 | 775.399 ± 1.4 | 771.197 ± 1.4 | 766.971 ± 1.4 | 1266 ± 6.4 | 1247 ± 6.4 | 1227.7 ± 6.4 | 1208.5 ± 6.4
x1 = 0.7004 | 774.754 ± 1.4 | 770.581 ± 1.4 | 766.391 ± 1.4 | 762.183 ± 1.4 | 1266.2 ± 6.3 | 1246.7 ± 6.3 | 1227.3 ± 6.3 | 1208.2 ± 6.3
x1 = 0.7993 | 770.026 ± 1.4 | 765.866 ± 1.4 | 761.694 ± 1.4 | 757.505 ± 1.4 | 1265.8 ± 6.3 | 1246.4 ± 6.3 | 1227.8 ± 6.3 | 1207.2 ± 6.3
x1 = 0.9004 | 765.576 ± 1.4 | 761.434 ± 1.4 | 757.282 ± 1.4 | 753.116 ± 1.4 | 1265.8 ± 6.3 | 1245.8 ± 6.3 | 1226 ± 6.3 | 1206.7 ± 6.3
x1 = 1 | 759.579 ± 1.4 | 755.48 ± 1.4 | 751.374 ± 1.4 | 747.268 ± 1.4 | 1260.1 ± 6.3 | 1240.1 ± 6.3 | 1220.3 ± 6.3 | 1200.6 ± 6.3

CC(C)NC(C)C [diisopropylamine] + CCC(C)O
Conditions | mass density, 293.15 K [kg/m3] | mass density, 298.15 K [kg/m3] | mass density, 303.15 K [kg/m3] | mass density, 308.15 K [kg/m3] | speed of sound, 293.15 K [m/s] | speed of sound, 298.15 K [m/s] | speed of sound, 303.15 K [m/s] | speed of sound, 308.15 K [m/s]
x1 = 0.1005 | 799.801 ± 1.4 | 795.472 ± 1.4 | 791.07 ± 1.4 | 786.592 ± 1.4 | 1230.8 ± 6.2 | 1211.7 ± 6.2 | 1192.3 ± 6.2 | 1173.4 ± 6.2
x1 = 0.1994 | 792.039 ± 1.4 | 787.516 ± 1.4 | 782.932 ± 1.4 | 778.279 ± 1.4 | 1226.2 ± 6.2 | 1205.7 ± 6.2 | 1185.3 ± 6.2 | 1165 ± 6.2
x1 = 0.3003 | 783.508 ± 1.4 | 778.829 ± 1.4 | 774.115 ± 1.4 | 769.331 ± 1.4 | 1217.3 ± 6.2 | 1196.2 ± 6.2 | 1175.6 ± 6.2 | 1154 ± 6.2
x1 = 0.3999 | 774.58 ± 1.4 | 769.813 ± 1.4 | 765.003 ± 1.4 | 760.146 ± 1.4 | 1205.6 ± 6.2 | 1183.8 ± 6.2 | 1162.3 ± 6.2 | 1141.1 ± 6.2
x1 = 0.5 | 764.776 ± 1.4 | 759.954 ± 1.4 | 755.099 ± 1.4 | 750.197 ± 1.4 | 1191 ± 6.2 | 1169.2 ± 6.2 | 1147.4 ± 6.2 | 1125.6 ± 6.2
x1 = 0.5961 | 755.456 ± 1.4 | 750.604 ± 1.4 | 745.72 ± 1.4 | 740.801 ± 1.4 | 1176.6 ± 6.2 | 1154.3 ± 6.2 | 1132.2 ± 6.2 | 1110.4 ± 6.2
x1 = 0.6964 | 745.553 ± 1.4 | 740.705 ± 1.4 | 735.88 ± 1.4 | 731.103 ± 1.4 | 1160.7 ± 6.3 | 1139 ± 6.3 | 1116.3 ± 6.3 | 1094.2 ± 6.3
x1 = 0.7997 | 736.007 ± 1.4 | 731.125 ± 1.4 | 726.228 ± 1.4 | 721.299 ± 1.4 | 1145.2 ± 6.3 | 1122.7 ± 6.3 | 1100.3 ± 6.3 | 1078.3 ± 6.3
x1 = 0.8967 | 726.62 ± 1.4 | 721.759 ± 1.4 | 716.873 ± 1.4 | 711.96 ± 1.4 | 1129.7 ± 6.3 | 1107 ± 6.3 | 1084.5 ± 6.3 | 1062.5 ± 6.3
x1 = 1 | 717.305 ± 1.4 | 712.441 ± 1.4 | 707.55 ± 1.4 | 702.661 ± 1.4 | 1116.4 ± 6.3 | 1093.8 ± 6.3 | 1071.1 ± 6.3 | 1043.5 ± 6.3

CC(C)NC(C)C [diisopropylamine] + CCCC(C)O
Conditions | mass density, 293.15 K [kg/m3] | mass density, 298.15 K [kg/m3] | mass density, 303.15 K [kg/m3] | mass density, 308.15 K [kg/m3] | speed of sound, 293.15 K [m/s] | speed of sound, 298.15 K [m/s] | speed of sound, 303.15 K [m/s] | speed of sound, 308.15 K [m/s]
x1 = 0.0998 | 803.093 ± 1.5 | 798.887 ± 1.5 | 794.621 ± 1.5 | 790.277 ± 1.5 | 1248.1 ± 6.5 | 1229 ± 6.5 | 1209.9 ± 6.5 | 1190.3 ± 6.5
x1 = 0.2001 | 795.724 ± 1.5 | 791.357 ± 1.5 | 786.936 ± 1.5 | 782.457 ± 1.5 | 1241.1 ± 6.5 | 1220.9 ± 6.5 | 1200.8 ± 6.5 | 1181.5 ± 6.5
x1 = 0.3 | 787.848 ± 1.5 | 783.455 ± 1.5 | 778.721 ± 1.5 | 774.03 ± 1.5 | 1230 ± 6.4 | 1209.5 ± 6.4 | 1189.3 ± 6.4 | 1168.8 ± 6.4
x1 = 0.4001 | 778.463 ± 1.5 | 773.871 ± 1.5 | 769.242 ± 1.5 | 764.565 ± 1.5 | 1216.8 ± 6.4 | 1196.3 ± 6.4 | 1175.3 ± 6.4 | 1154.3 ± 6.4
x1 = 0.5006 | 768.901 ± 1.4 | 764.237 ± 1.4 | 759.54 ± 1.4 | 754.802 ± 1.4 | 1201.8 ± 6.4 | 1180.2 ± 6.4 | 1158.9 ± 6.4 | 1137.8 ± 6.4
x1 = 0.6001 | 758.906 ± 1.4 | 754.192 ± 1.4 | 749.437 ± 1.4 | 744.665 ± 1.4 | 1185.2 ± 6.4 | 1164 ± 6.4 | 1142.1 ± 6.4 | 1120.9 ± 6.4
x1 = 0.678 | 751.419 ± 1.4 | 746.673 ± 1.4 | 741.893 ± 1.4 | 737.079 ± 1.4 | 1172.8 ± 6.3 | 1151 ± 6.3 | 1129.1 ± 6.3 | 1107.4 ± 6.3
x1 = 0.7975 | 738.446 ± 1.4 | 733.65 ± 1.4 | 728.827 ± 1.4 | 723.973 ± 1.4 | 1152.6 ± 6.3 | 1130.2 ± 6.3 | 1108.1 ± 6.3 | 1086.2 ± 6.3
x1 = 0.8993 | 728.166 ± 1.4 | 723.262 ± 1.4 | 718.39 ± 1.4 | 713.692 ± 1.4 | 1132.8 ± 6.3 | 1110.2 ± 6.3 | 1087.8 ± 6.3 | 1063.8 ± 6.3
x1 = 1 | 717.305 ± 1.4 | 712.441 ± 1.4 | 707.55 ± 1.4 | 702.661 ± 1.4 | 1116.4 ± 6.3 | 1093.8 ± 6.3 | 1071.1 ± 6.3 | 1043.5 ± 6.3

From the NIST ThermoML archive (doi:10.1016/j.jct.2018.12.012)
